# Tests used:
# Mu-type opioid receptor = Mu-type opioid receptor (Cavia porcellus, UniProt P97266); assay: Displacement of [3H]-DAMGO from mu opioid receptor in guinea pig brain membrane after 120 mins by scintillation counting; assay type: cell membranes
# [1] = molecular target: T1, Kappa-type opioid receptor (Homo sapiens, UniProt P41145); assay: Binding affinity to kappa opioid receptor (unknown origin)
# [2] = molecular target: Kappa-type opioid receptor (Cavia porcellus, UniProt P41144); assay: Displacement of [3H]-U-69593 from kappa opioid receptor in guinea pig brain membrane after 120 mins by scintillation counting; assay type: cell membranes
# [3] = molecular target: T1, Kappa-type opioid receptor; assay: Intrinsic activity at kappa opioid receptor in human HEK293 cells at 100 nM after 30 mins by [35S]GTPgammaS binding assay relative to U-69593; assay type: functional, cell-based
# [4] = molecular target: Delta-type opioid receptor (Rattus norvegicus, UniProt P33533); assay: Displacement of [3H]-DPDPE from delta opioid receptor in rat brain membrane after 120 mins by scintillation counting; assay type: cell membranes
# Delta-type opioid receptor, sequence (P33533 whole entry): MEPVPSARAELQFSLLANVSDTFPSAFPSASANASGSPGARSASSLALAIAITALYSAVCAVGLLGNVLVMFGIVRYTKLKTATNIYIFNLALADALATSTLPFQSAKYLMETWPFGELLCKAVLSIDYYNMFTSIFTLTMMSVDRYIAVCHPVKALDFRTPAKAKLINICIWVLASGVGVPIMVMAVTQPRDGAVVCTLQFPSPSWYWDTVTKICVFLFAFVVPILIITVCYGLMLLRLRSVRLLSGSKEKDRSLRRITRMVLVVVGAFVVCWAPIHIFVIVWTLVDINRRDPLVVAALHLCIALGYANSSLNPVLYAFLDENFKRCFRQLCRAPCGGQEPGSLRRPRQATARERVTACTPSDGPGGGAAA
# Mu-type opioid receptor, sequence (P97266 whole entry): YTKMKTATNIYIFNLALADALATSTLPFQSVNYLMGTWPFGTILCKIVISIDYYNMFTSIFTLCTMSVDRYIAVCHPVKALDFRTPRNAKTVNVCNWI
# T1 sequence (P41145 whole entry): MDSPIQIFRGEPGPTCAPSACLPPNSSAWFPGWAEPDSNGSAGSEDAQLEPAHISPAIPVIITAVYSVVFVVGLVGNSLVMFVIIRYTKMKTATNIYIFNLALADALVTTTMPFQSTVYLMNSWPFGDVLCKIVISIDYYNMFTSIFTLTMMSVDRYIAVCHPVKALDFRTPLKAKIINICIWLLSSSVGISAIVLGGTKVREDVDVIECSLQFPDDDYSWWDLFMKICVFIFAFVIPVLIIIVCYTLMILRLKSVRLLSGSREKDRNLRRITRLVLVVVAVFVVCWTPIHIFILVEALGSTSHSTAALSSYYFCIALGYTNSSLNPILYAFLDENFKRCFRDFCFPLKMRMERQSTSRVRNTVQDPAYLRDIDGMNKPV
# Kappa-type opioid receptor (Cavia porcellus, UniProt P41144), sequence (P41144 whole entry): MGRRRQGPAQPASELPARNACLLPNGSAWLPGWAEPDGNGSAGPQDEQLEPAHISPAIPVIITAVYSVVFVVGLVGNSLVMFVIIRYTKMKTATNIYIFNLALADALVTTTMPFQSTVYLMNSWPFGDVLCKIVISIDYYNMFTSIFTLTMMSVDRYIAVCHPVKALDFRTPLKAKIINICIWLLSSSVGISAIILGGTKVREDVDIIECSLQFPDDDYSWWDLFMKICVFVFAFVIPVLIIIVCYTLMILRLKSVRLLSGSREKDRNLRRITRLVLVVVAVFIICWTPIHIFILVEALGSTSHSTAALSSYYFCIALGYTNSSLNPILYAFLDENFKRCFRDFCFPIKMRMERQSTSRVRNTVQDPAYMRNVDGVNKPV
Structure (SMILES),Ki (Mu-type opioid receptor) [nM],other results
COC(=O)N1CCN(C(=O)Cc2ccc(Cl)c(Cl)c2)[C@@H]2[C@H](N3CCCC3)CCC[C@H]21 (stereo in doubt),118,
COC(=O)N1CCN(C(=O)Cc2ccc(Cl)c(Cl)c2)[C@H]2[C@@H](N3CCCC3)CCC[C@@H]21 (stereo in doubt),343,
COC(=O)N1CCN(C(=O)Cc2ccc(Cl)c(Cl)c2)[C@H]2[C@H](N3CCCC3)CCC[C@@H]21 (stereo in doubt),309,
COC(=O)N1CCN(C(=O)Cc2ccc(Cl)c(Cl)c2)[C@H]2[C@H](N3CCCC3)CCC[C@H]21 (racemic),113,
COC(=O)N1CCN(C(=O)Cc2ccc(Cl)c(Cl)c2)[C@H]2[C@H](N3CCCC3)CCC[C@H]21,544,
COC(=O)N1CCN(C(=O)Cc2ccc(Cl)c(Cl)c2)[C@H](CN2CCCC2)C1,,Ki [1]: 360 nM; Ki [2]: 0.36 nM
COC(=O)N1CCN(C(=O)Cc2ccc(Cl)c(Cl)c2)[C@@H]2[C@@H](N3CCCC3)CCC[C@@H]21,43,
CN(C(=O)/C=C/c1ccoc1)[C@@H]1CC[C@@]2(O)[C@H]3Cc4ccc(O)c5c4[C@@]2(CCN3CC2CC2)[C@H]1O5 [NALFURAFINE],,Activity [3]: 100%; Ki [4]: 0.37 nM

# Source: ChEMBL document CHEMBL3632621, “Conformationally restricted κ-opioid receptor agonists: Synthesis and pharmacological evaluation of diastereoisomeric and enantiomeric decahydroquinoxalines” (Bioorg Med Chem Lett, 2015)
